Results taken from publication PMC3059997, “Exploring Indirect Sources of Human Exposure to Perfluoroalkyl Carboxylates (PFCAs): Evaluating Uptake, Elimination, and Biotransformation of Polyfluoroalkyl Phosphate Esters (PAPs) in the Rat” (Environmental Health Perspectives, 2010).

Tests used:
Assay type in all cases: in vivo, Sprague-Dawley rats
[1] = Elimination experiment: diPAP mixture by IV injection, analytes in whole blood
Experimental: (§1) This research was conducted under an animal use protocol approved by the University of Toronto Animal Care Committee. All animals were treated humanely and with regard for alleviation of suffering. Sprague-Dawley rats were obtained from Charles River Laboratories Inc. (Sherbrooke, QC, Canada) The animals were singly housed and exposed to a 12/12 hr light/dark cycle with food and water available ad libitum. Blood samples were collected from the saphenous vein using Microvette CB 300 vials (Sarstedt AG & Co., Montreal, QC, Canada) embedded with lithium-heparin as an anticoagulant. Whole-blood samples were stored at −20°C, and urine and feces samples were stored at 4°C.
(§2) Two groups of four 8-week-old male rats were administered a mixture of 4:2, 6:2, 8:2, and 10:2 diPAP or monoPAP, respectively, each at about 15 mg/kg, at 2 mL/kg by intravenous (IV) injection into the lateral tail vein. The dosing vehicle was 50:50 propylene glycol:water. Two control male rats were administered clean vehicle at 2 mL/kg [for details see Supplemental Material, Table 3 (doi:10.1289/ehp.1002409)].
(§3) Blood was collected from all animals 3 days before dosing to establish background contamination. For the uptake experiment, blood samples were collected at 1, 3, and 6 hr and 1, 2, 4, 7, 10, 14, 18, and 22 days after dosing. For the elimination experiment, blood samples were collected at 2, 4, and 6 hr and 1, 2, 4, 8, 11, 15, and 18 days after dosing. On the final sampling day, the animals were sacrificed by carbon dioxide asphyxiation, and about 10 mL of blood was collected by cardiac puncture into a BD Vacutainer embedded with lithium-heparin.
(§4) The compounds of interest fall into four categories: a) the diPAP and monoPAP parent compounds, b) the saturated and unsaturated fluorotelomer carboxylic acid (FTCA and FTUCA) metabolic intermediates, c) the FTOH-sulfate and FTOH-glucuronide phase II metabolites, and d) the final PFCA biotransformation products [see Supplemental Material, Table 1 (doi:10.1289/ehp.1002409)]. We analyzed these compounds in whole blood, urine, and feces samples. For full analytical details, see Supplemental Material. All PFCAs, FTCAs, FTUCAs, and phase II metabolites were quantified by internal calibration. Because internal standards were not available, monoPAPs and diPAPs were quantified by standard addition. We performed spike and recovery experments to validate the extraction and quantification techniques used (for details, see Supplemental Material).
(§5) Analyte and matrix specific limits of detection (LODs) and limits of quantification (LOQs) are provided in Supplemental Material (doi:10.1289/ehp.1002409). For the purpose of calculating means, values < LOD were assigned a value of zero, and values < LOQ but > LOD were used unaltered but are indicated by asterisks in figures and parentheses in tables. Values are presented using the arithmetic mean ± SE. Full data sets are available in Supplemental Material. […]

[2] = Uptake experiment: monoPAP mixture by oral gavage, analytes in whole blood
Experimental: as §1
(§6) Two groups of four 8-week-old male rats were administered a mixture of 4:2, 6:2, 8:2, and 10:2 diPAP or monoPAP, respectively, each at about 50 mg/kg, at 4 mL/kg by oral gavage without prior fasting. […] Two control male rats were administered clean vehicle at 4 mL/kg [for details, see Supplemental Material, Table 3 (doi:10.1289/ehp.1002409)].
as §3, §4
(§7) Analyte and matrix specific limits of detection (LODs) and limits of quantification (LOQs) are provided in Supplemental Material (doi:10.1289/ehp.1002409). For the purpose of calculating means, values < LOD were assigned a value of zero, and values < LOQ but > LOD were used unaltered but are indicated by asterisks in figures and parentheses in tables. Values are presented using the arithmetic mean ± SE. Full data sets are available in Supplemental Material.

[3] = Elimination experiment: monoPAP mixture by IV injection, analytes in whole blood; conditions: for Cmax / Tmax: whole blood
Experimental: as §1, §2, §3, §4, §7

[4] = Uptake experiment: diPAP mixture by oral gavage, analytes in whole blood; conditions: for Cmax: values in parentheses < LOQ but > LOD
Experimental: as §1, §6, §3, §4, §5

[5] = Renal elimination: analytes in urine collected in metabolic cages
Experimental: as §1, with “4°C. […]” for “4°C.”
as §4, with “For full analytical details, see Supplemental Material.” left out, “We performed spike and recovery experments to validate the extraction and quantification techniques used (for details, see Supplemental Material).” left out

[6] = diPAP gavage dose, whole blood, mean ± SE
[7] = diPAP IV dose, whole blood, mean ± SE, values in parentheses < LOQ but > LOD
[8] = monoPAP gavage dose, whole blood
[9] = monoPAP gavage dose, whole blood, values in parentheses < LOQ but > LOD

In the case of O=C(O)CCC(F)(F)C(F)(F)C(F)(F)C(F)(F)C(F)(F)F [5:3 FTCA], the “Detection in blood (time points)” value ([1]; after IV diPAP dosing) is reported as “in the samples from 2 hr to 2 days postdosing”, the “Detection in blood (time points)” value ([2]; after monoPAP oral gavage) is reported as “present in all of the samples from 2 hr to 2 days postdosing” and the “Detection in blood (time points)” value ([3]; after monoPAP IV dosing) is reported as “observed in the 2, 4, and 6-hr time points”.
With O=S(=O)(O)OCCC(F)(F)C(F)(F)C(F)(F)C(F)(F)C(F)(F)C(F)(F)C(F)(F)C(F)(F)C(F)(F)C(F)(F)F [10:2 FTOH-sulfate] the “Detection in blood (time points)” value ([4]; after diPAP oral gavage) was “at 1 and 2 days after dosing” and the “Detection in blood (time points)” value ([2]; after monoPAP oral gavage) was “frequently detected between 6 hr and 2 days postdosing”.
In the case of O=C(O)C=C(F)C(F)(F)C(F)(F)C(F)(F)F [4:2 FTUCA], the “Detection in blood (time points)” value ([4]; rat, in vivo, po) is reported as 6 hr postdosing, but in only one animal and the “Detection in blood (time points)” value ([3]; rat, in vivo, iv) is reported as 2 hr postdosing.
With O=C(O)CCC(F)(F)C(F)(F)C(F)(F)C(F)(F)C(F)(F)C(F)(F)C(F)(F)F [7:3 FTCA] the “Detection in blood (time points)” value ([2]; after monoPAP oral gavage) was “present in all of the samples from 2 hr to 2 days postdosing”.
With O=C(O)C(F)(F)C(F)(F)C(F)(F)C(F)(F)C(F)(F)C(F)(F)C(F)(F)C(F)(F)F [PFNA, perfluorononanoate] the Tmax ([4]; diPAP gavage dose, whole blood) was 8 days, the “Cmax” value [4, 6] was 6.4 ± 5.2 ng/g and the Tmax ([1]; diPAP IV dose, whole blood) was 360 h. For the same compound, the “Cmax (ng/g)” value [1, 7] was “(4.1 ± 3.3) ng/g”, the Tmax [2, 8] was 1 day days and the “Cmax (ng/g)” value [2, 9] was “(1.5 ± 0.09) ng/g”. The “Cmax” value ([3]; monoPAP IV dose) was 2.3 ± 0.4 ng/g and the Tmax ([3]; monoPAP IV dose) was 360 h.
Work on O=C(O)C(F)(F)C(F)(F)C(F)(F)C(F)(F)C(F)(F)C(F)(F)F [PFHpA, perfluoroheptanoic acid] yielded a Cmax ([4]; male, Sprague-Dawley, rat, in vivo, po, 50 mg/kg, diPAP gavage dose, whole blood, mean ± SE, read-out: Cmax) of 2.6 ± 0.5 ng/g, a Tmax ([4]; male, Sprague-Dawley, rat, in vivo, po, 50 mg/kg, diPAP gavage dose, whole blood, read-out: Tmax (converted)) of 1 days and a Cmax ([1]; male, Sprague-Dawley, rat, in vivo, 15 mg/kg, diPAP IV dose, whole blood, mean ± SE, values in parentheses < LOQ but > LOD, read-out: Cmax) of 7.3 ± 0.6 ng/g. For the same compound, the Tmax ([1]; male, Sprague-Dawley, rat, in vivo, 15 mg/kg, diPAP IV dose, whole blood, read-out: Tmax (converted)) was 4 h, the Tmax ([2]; male, Sprague-Dawley, rat, in vivo, po, 50 mg/kg, monoPAP gavage dose, whole blood, read-out: Tmax (converted)) was 24 h and the Cmax ([2]; male, Sprague-Dawley, rat, in vivo, po, 50 mg/kg, monoPAP gavage dose, whole blood, values in parentheses < LOQ but > LOD, read-out: Cmax) was 9 ± 2.2 ng/g. It also gave a Cmax ([3]; male, Sprague-Dawley, rat, in vivo, 15 mg/kg, monoPAP IV dose, read-out: Cmax) of 2.3 ± 0.7 ng/g and a Tmax ([3]; male, Sprague-Dawley, rat, in vivo, 15 mg/kg, monoPAP IV dose, read-out: Tmax (converted)) of 24 h.
In the case of O=C(O)C=C(F)C(F)(F)C(F)(F)C(F)(F)C(F)(F)C(F)(F)F [6:2 FTUCA], the “Detection in blood (time points)” value ([4]; rat, in vivo, po) is reported as 6 hr postdosing, but in only one animal and the “Detection in blood (time points)” value ([3]; rat, in vivo, iv) is reported as “observed in the 2, 4, and 6-hr time points”.
With O=C(O)C(F)(F)C(F)(F)C(F)(F)C(F)(F)F [PFPeA, perfluoropentanoic acid] the Tmax ([1]; diPAP IV dose, whole blood) was 2 h, the “Cmax” value [1, 7] was 7.1 ± 0.6 ng/g and the “Cmax” value ([3]; monoPAP IV dose) was 2.1 ± 0.8 ng/g. It also gave a Tmax ([3]; monoPAP IV dose) of 6 h.
For O=C(O)[C@H]1O[C@@H](OCCC(F)(F)C(F)(F)C(F)(F)C(F)(F)C(F)(F)C(F)(F)F)[C@H](O)[C@@H](O)[C@@H]1O [6:2 FTOH-glucuronide], the “Detection in blood (time points)” value ([2]; rat, in vivo, po) was “observed at 2 hr and 6 hr postdosing”.
In the case of O=C(O)CC(F)(F)C(F)(F)C(F)(F)C(F)(F)C(F)(F)C(F)(F)C(F)(F)C(F)(F)C(F)(F)C(F)(F)F [10:2 FTCA], the “Detection in blood (time points)” value ([4]; after diPAP oral gavage) is reported as “present in the blood at the 6-hr time point” and the “Detection in blood (time points)” value ([1]; after IV diPAP dosing) is reported as “only in the sample collected 2 days after dosing”.
For O=C(O)[C@H]1O[C@@H](OCCC(F)(F)C(F)(F)C(F)(F)C(F)(F)F)[C@H](O)[C@@H](O)[C@@H]1O [4:2 FTOH-glucuronide], the “Detection in blood (time points)” value ([1]; rat, in vivo, iv) was “in the blood 2 hr postdosing”, the “Detection in blood (time points)” value ([2]; rat, in vivo, po) was “observed at 2 hr and 6 hr postdosing” and the “Detection in blood (time points)” value ([3]; rat, in vivo, iv) was “in the blood 2 hr after dosing”. For the same compound, the Observation in urine ([5]; rat, in vivo) was “consistently observed”.
For O=C(O)CC(F)(F)C(F)(F)C(F)(F)C(F)(F)F [4:2 FTCA], the “Detection in blood (time points)” value ([4]; after diPAP oral gavage) was 6 hr postdosing, but in only one animal and the “Detection in blood (time points)” value ([3]; after monoPAP IV dosing) was 2 hr postdosing.
In the case of O=S(=O)(O)OCCC(F)(F)C(F)(F)C(F)(F)C(F)(F)C(F)(F)C(F)(F)C(F)(F)C(F)(F)F [8:2 FTOH-sulfate], the “Detection in blood (time points)” value ([2]; after monoPAP oral gavage) is reported as “frequently detected between 6 hr and 2 days postdosing”.
In the case of O=S(=O)(O)OCCC(F)(F)C(F)(F)C(F)(F)C(F)(F)F [4:2 FTOH-sulfate], the “Detection in blood (time points)” value ([1]; after IV diPAP dosing) is reported as “in the blood 2 hr postdosing”, the “Detection in blood (time points)” value ([3]; after monoPAP IV dosing) is reported as “in the blood 2 hr after dosing” and the Observation in urine ([5]; urine samples from all dosing regimes) is reported as “consistently observed”.
With O=C(O)C(F)(F)C(F)(F)C(F)(F)C(F)(F)C(F)(F)C(F)(F)C(F)(F)C(F)(F)C(F)(F)F [PFDA, perfluorodecanoate] the “Half-life” value ([4]; diPAP gavage dose, about 50 mg/kg each, whole blood, mean ± SE) was 264 ± 48 h, the Tmax ([4]; diPAP gavage dose, whole blood) was 1 day days and the “Cmax” value [4, 6] was 3.6 ± 0.6 ng/g. The “Half-life” value ([1]; diPAP IV dose, about 15 mg/kg each, whole blood, mean ± SE) was 240 ± 48 h, the Tmax ([1]; diPAP IV dose, whole blood) was 48 h and the “Cmax” value [1, 7] was 6.2 ± 1.2 ng/g. For the same compound, the “Half-life” value ([2]; monoPAP gavage dose, about 50 mg/kg each, PFCA product in whole blood) was 288 ± 190 h, the Tmax [2, 8] was 48 h and the “Cmax (ng/g)” value [2, 9] was “(1.1 ± 0.27) ng/g”. The “Half-life” value ([3]; monoPAP IV dose, about 15 mg/kg each, PFCA product in whole blood) was 312 ± 220 h, the “Cmax” value ([3]; monoPAP IV dose) was 0.93 ± 0.20 ng/g and the Tmax ([3]; monoPAP IV dose) was 360 h.
In the case of O=C(O)CC(F)(F)C(F)(F)C(F)(F)C(F)(F)C(F)(F)C(F)(F)F [6:2 FTCA], the “Detection in blood (time points)” value ([4]; after diPAP oral gavage) is reported as 6 hr postdosing, but in only one animal, the “Detection in blood (time points)” value ([2]; after monoPAP oral gavage) is reported as “blood samples taken 2, 4, and 6 hr postdosing” and the “Detection in blood (time points)” value ([3]; after monoPAP IV dosing) is reported as 2 hr postdosing.
With O=C(O)CC(F)(F)C(F)(F)C(F)(F)C(F)(F)C(F)(F)C(F)(F)C(F)(F)C(F)(F)F [8:2 FTCA] the “Detection in blood (time points)” value ([4]; after diPAP oral gavage) was 6 hr postdosing, but in only one animal and the “Detection in blood (time points)” value ([2]; after monoPAP oral gavage) was “blood samples taken 2, 4, and 6 hr postdosing”.
